Source: PubChem BioAssay (NCI)
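Following 48 hours of exposure in 96-well plates, responses at five concentrations were used to interpolate endpoints linearly. GI50 = concentration required for 50% inhibition of growth. TGI is the concentration that stops growth completely.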

Assays:
Assay in all cases: NCI tumour cell line growth inhibition, 48 h
U251 CNS = test system: U251 CNS
NCI-H23 lung = test system: NCI-H23 lung
NCI-H460 lung = test system: NCI-H460 lung
UACC-257 melanoma = test system: UACC-257 melanoma
HT29 colon = test system: HT29 colon
NCI-H522 lung = test system: NCI-H522 lung
MCF7 breast = test system: MCF7 breast
IGROV1 ovarian = test system: IGROV1 ovarian
SNB-19 CNS = test system: SNB-19 CNS
COLO 205 colon = test system: COLO 205 colon

| Compound | GI50 (U251 CNS) | TGI (U251 CNS) | GI50 (NCI-H23 lung) | TGI (NCI-H23 lung) | GI50 (NCI-H460 lung) | TGI (NCI-H460 lung) | GI50 (UACC-257 melanoma) | TGI (UACC-257 melanoma) | GI50 (HT29 colon) | TGI (HT29 colon) | GI50 (NCI-H522 lung) | TGI (NCI-H522 lung) | GI50 (MCF7 breast) | TGI (MCF7 breast) | GI50 (IGROV1 ovarian) | TGI (IGROV1 ovarian) | GI50 (SNB-19 CNS) | TGI (SNB-19 CNS) | GI50 (COLO 205 colon) | TGI (COLO 205 colon) |
| --- | --- | --- | --- | --- | --- | --- | --- | --- | --- | --- | --- | --- | --- | --- | --- | --- | --- | --- | --- | --- |
| COc1cc2c3c(n(CCCN(C)CCO)c(=O)c2cc1OC)-c1cc2c(cc1C3=O)OCO2 | 0.814 µM | > 100 µM | 0.839 µM | > 24.6 µM | 1.89 µM | > 100 µM | > 62.6 µM | > 100 µM | 9.06 µM | > 75.2 µM | 2.16 µM | > 46 µM | > 28.3 µM | > 100 µM | 2.47 µM | > 55.6 µM | 8.32 µM | > 100 µM | 12.6 µM | > 100 µM |
| CN(C)CCNc1nc2ccccc2c2c(=O)c3cc(F)ccc3sc12 |  |  | 1.79 µM | 3.26 µM | 1.79 µM | 3.42 µM | 2.12 µM | 4.16 µM | 1.68 µM | 3.48 µM | 1.86 µM | 3.79 µM | 1.62 µM | 3.22 µM | 1.53 µM | 2.99 µM |  |  | 2.13 µM | 4.86 µM |
| CC1(C)N=C(N)N=C(N)N1c1cccc(OCCOc2cccc([N+](=O)[O-])c2)c1 | 0.808 µM | > 100 µM | 1.73 µM | > 100 µM | 0.541 µM | > 100 µM | 4.32 µM | > 100 µM | 0.583 µM | > 100 µM | 1.19 µM | 62.5 µM | 2.23 µM | > 100 µM | 0.565 µM | > 100 µM | 4.88 µM | > 100 µM | 2.13 µM | > 100 µM |
| c1ccc(NCCSc2nc3ccccc3s2)cc1 |  | > 100 µM |  | > 100 µM |  | > 100 µM |  | 77 µM |  | > 100 µM |  | > 100 µM |  | > 100 µM |  | > 100 µM |  | > 100 µM |  | 41.8 µM |
| CNCCn1c(=O)c2cc(OC)c(OC)cc2c2cnc3cc4c(cc3c21)OCO4 | < 0.01 µM | 0.0242 µM | < 0.0112 µM | 1.33 µM | < 0.01 µM | 0.217 µM | 0.0267 µM | 5.66 µM | 0.0119 µM | 0.11 µM | < 0.01 µM | 0.0261 µM | < 0.01 µM | 1.14 µM | 0.0276 µM | 1.76 µM | < 0.01 µM | 2.28 µM | 0.0304 µM | 2.06 µM |
| COC(=O)[C@]12CC[C@@H](C)[C@H](C)[C@@H]1C1=CC[C@@H]3[C@@]4(C)C(C=O)=C[C@@](C)(COC(=O)c5ccco5)[C@@H]4[C@H](O)C[C@@]3(C)[C@]1(C)CC2 | 1.41 µM | 2.91 µM | 2.24 µM | 7.01 µM | 2.51 µM | 6.3 µM | 0.263 µM | 0.997 µM | 1.81 µM | 4.14 µM | 1.64 µM | 3.94 µM | 2.31 µM | 9.86 µM | 3.03 µM | > 100 µM | 4.32 µM | 30.8 µM | 0.0493 µM | 0.355 µM |
| Clc1nc(Cl)c2ncn(Cc3ccccc3Cn3cnc4c(Cl)nc(Cl)nc43)c2n1 | 2.05 µM | 4.63 µM | 5.26 µM | 10.7 µM | 3.07 µM | 11.7 µM | 9.62 µM | 25.4 µM | 2.13 µM |  | 4.28 µM | 13.7 µM | 0.922 µM | 4.99 µM | 3.14 µM | 8.46 µM | 2.9 µM | > 26.1 µM | 2.89 µM | > 26.3 µM |
| O=C(NC1CCCCC1)c1ccc(Nc2ncnc3c2cnn3-c2ccccc2)cc1 |  |  | 10.9 µM | 89.9 µM | 7.09 µM | > 100 µM | 6.42 µM | > 100 µM |  |  | 6.4 µM | > 100 µM | 74.1 µM | > 100 µM | 14.4 µM | 65.9 µM | 3.82 µM | 18.9 µM | 12.5 µM | > 100 µM |
| COc1ccc(-c2noc(N)c2-c2cc(OC)c3c(c2)OCO3)cc1 | 3.7 µM | > 100 µM | 3.17 µM | > 83.1 µM | 3.13 µM | 28 µM | 5.87 µM | > 100 µM | 1.39 µM | > 35.5 µM | 1.24 µM |  | 0.707 µM | > 100 µM | 6.8 µM | > 100 µM | 10.6 µM | > 100 µM | 2.34 µM | 9.41 µM |
| Oc1ccc(Oc2cnc3ccccc3n2)cc1 | > 100 µM | > 100 µM | > 100 µM | > 100 µM | > 100 µM | > 100 µM | > 100 µM | > 100 µM | > 100 µM | > 100 µM | > 100 µM | > 100 µM | > 100 µM | > 100 µM | > 100 µM | > 100 µM | > 100 µM | > 100 µM | > 100 µM | > 100 µM |
| Cc1c2c(C(N)=O)nccc2c(C)c2c1c1ccccc1n2Cc1ccccc1 |  | 24.9 µM |  | 78.8 µM |  | 28.8 µM |  | > 100 µM |  | 37.1 µM |  | 54.6 µM |  | > 100 µM |  | 42.7 µM |  | 51.2 µM |  |  |
| COc1cc(C(=O)O[C@H](C(N)=O)[C@]2(C)CO2)c2cccc(C)c2c1 |  |  | < 0.0203 µM |  | 0.395 µM | > 32.1 µM | 1.49 µM | > 21.3 µM | < 0.0418 µM |  | < 0.0342 µM | 0.638 µM | < 0.0367 µM | > 100 µM | < 0.01 µM | 0.0567 µM | 1.21 µM | 5.02 µM |  | 11.4 µM |
| O=C1c2ccccc2C(=O)c2c(NCCN=Cc3ccccc3O)cccc21 | 5.06 µM | 19.5 µM | 12.4 µM | > 100 µM | 2.18 µM | 6.91 µM | 4.84 µM | 13.4 µM | 2.26 µM |  | 6.94 µM | > 25.6 µM | 1.57 µM | 5.27 µM | 2.57 µM | 10.3 µM | 4.31 µM | > 54.5 µM | 1.41 µM | 3.82 µM |
| Cn1cc(-c2csc(-c3cn(C)c4ccc(F)cc34)n2)c2cnccc21 | 1.8 µM | 3.23 µM | 1.94 µM | 3.58 µM | 1.97 µM | 3.71 µM | 1.8 µM | 3.26 µM | 1.47 µM | 3 µM | 1.77 µM | 3.34 µM | 1.93 µM | 3.66 µM | 1.96 µM | 3.63 µM | 1.82 µM | 3.3 µM |  |  |
| Oc1ccc(/C=C/c2cc(O)cc3c2C(c2cc(O)cc(O)c2)C(c2ccc(O)c(O)c2)O3)cc1 (stereo unspecified) |  | > 100 µM |  | 63.9 µM |  |  |  | > 100 µM |  | 47.6 µM |  | 83 µM |  | > 100 µM |  | > 100 µM |  | 54.3 µM |  | 45.1 µM |
| C=CCn1c(SCC(=O)Nc2ccc(C(=O)/C=C/c3cc(OC)c(OC)c(OC)c3)cc2)nnc1-c1ccc(OC)cc1 | 0.289 µM | 0.939 µM | 0.67 µM | 2.66 µM | 0.698 µM | 2.59 µM |  |  | 0.237 µM | 0.532 µM | 0.689 µM | 3.37 µM | 0.246 µM | 3.14 µM | 0.324 µM | 1.9 µM | 0.59 µM | 11.8 µM | 0.399 µM | 3.83 µM |
| COc1cc(/C=C/C(=O)C(C(=O)/C=C/c2ccc(OC(=O)CCNC34CC5CC(CC(C5)C3)C4)c(OC)c2)C(=O)CCNC23CC4CC(CC(C4)C2)C3)ccc1OC(=O)CCNC12CC3CC(CC(C3)C1)C2 (stereo unspecified) | 3.25 µM | 11.3 µM | 5.02 µM | > 100 µM | 2.98 µM | 10.2 µM | 3.45 µM | 14 µM | 1.69 µM | 3.24 µM | 3.46 µM | 15.2 µM | 1.97 µM | 6.28 µM |  |  | 4.07 µM | 15.9 µM | 4.27 µM | 17.8 µM |
| COc1cc2c3c(n(CCCN(CCO)CCO)c(=O)c2cc1OC)-c1cc2c(cc1C3=O)OCO2 | < 0.01 µM | 0.628 µM | < 0.01 µM | 0.139 µM | < 0.01 µM | 2.28 µM | 1.55 µM | > 22.5 µM | < 0.01 µM | 1.03 µM |  |  | < 0.01 µM | > 24.7 µM |  | > 100 µM | 0.603 µM | > 35.5 µM | 0.218 µM | 12.7 µM |
| CC(C)(C)c1cc(C(=O)/C=C/c2ccc(C(=O)O)cc2)cc(C(C)(C)C)c1 |  | 11.2 µM |  |  |  | 7.36 µM |  | 21.9 µM |  | 13.2 µM |  | 15.4 µM |  | 14.8 µM |  | 12.2 µM |  | 5.74 µM |  | 4.73 µM |
| O=C(Nc1ccc(Cl)cc1)Nc1nccs1 | 3.44 µM | 26.9 µM | 11.5 µM | > 100 µM | 0.487 µM | 57.3 µM |  |  | 0.511 µM | 27.1 µM | 1.92 µM | 14.4 µM | 0.439 µM | > 100 µM | 1.26 µM | > 100 µM | 3.67 µM | > 100 µM | 0.75 µM | 6.13 µM |
| N#CC(C#N)=C1CCCOc2c1ccc1ccccc21 |  |  | > 100 µM | > 100 µM | > 100 µM | > 100 µM |  |  | > 100 µM | > 100 µM | > 100 µM | > 100 µM | > 100 µM | > 100 µM | > 100 µM | > 100 µM | 94.3 µM | > 100 µM | > 100 µM | > 100 µM |
